# Literature values, collected in PubChem BioAssay AID1259409 (Chemical Carcinogenesis Research Information System (CCRIS), 2018).
# Test system: rodent chemically induced tumor inhibition, incidence and multiplicity
# Experiment: CCRIS tumor inhibitor studies
# Details: Dose [Inhibitor]: 0
smiles,measurement,setting,value
O=C(OC[C@@H]1O[C@H](OC(=O)c2cc(O)c(O)c(OC(=O)c3cc(O)c(O)c(O)c3)c2)[C@@H](OC(=O)c2cc(O)c(O)c(OC(=O)c3cc(O)c(O)c(O)c3)c2)[C@H](OC(=O)c2cc(O)c(O)c(OC(=O)c3cc(O)c(O)c(O)c3)c2)[C@H]1OC(=O)c1cc(O)c(O)c(OC(=O)c2cc(O)c(O)c(O)c2)c1)c1cc(O)c(O)c(OC(=O)c2cc(O)c(O)c(O)c2)c1,"tumour outcome (control, treated, inhibition, significance)","Carcinogen: 7,12-DIMETHYLBENZ[A]ANTHRACENE : 57-97-6, 17 MG 2/WK FOR 20 WK APPLIED 24 HR POST EACH PROMOTER DOSE (STUDY DURATION: 22 WK), Route [Inhibitor]: DERMAL, Species: MOUSE, Strain/Sex: CF-1/FEMALE, Target Tissue: Type of Lesion: SKIN: PAPILLOMA, Dose [Carcinogen]: 25.6 UG IN 0.2 ML ACETONE ONCE, Promoter: 12-O-TETRADECANOYLPHORBOL-13-ACETATE, 16561-29-8","90%, 98%, -9%, not calculated"
same,"tumour outcome (control, treated, inhibition, significance)","Carcinogen: 7,12-DIMETHYLBENZ[A]ANTHRACENE, 57-97-6, 1% IN DIET FOR 35 WK BEGINNING POST CARCINOGEN DOSE (STUDY DURATION: 36 WK), Route [Inhibitor]: ORAL, Species: RAT, Strain/Sex: SPRAGUE-DAWLEY/FEMALE, Target Tissue: Type of Lesion: EAR DUCT: TUMOR, Dose [Carcinogen]: 50 MG/KG BW IN CORN OIL ONCE, Promoter: NONE USED","5/15 (33%), 5/15 (33%), 0%, not significant"
same,"tumour outcome (control, treated, inhibition, significance)","Carcinogen: 7,12-DIMETHYLBENZ[A]ANTHRACENE, 57-97-6, 1% IN DIET FOR 35 WK BEGINNING POST CARCINOGEN DOSE (STUDY DURATION: 36 WK), Route [Inhibitor]: ORAL, Species: RAT, Strain/Sex: SPRAGUE-DAWLEY/FEMALE, Target Tissue: Type of Lesion: MAMMARY GLAND: ADENOCARCINOMA, Dose [Carcinogen]: 50 MG/KG BW IN CORN OIL ONCE, Promoter: NONE USED","14/15 (93%), 12/15 (80%), 14%, not significant"
same,"tumour outcome (control, treated, inhibition, significance)","Carcinogen: 7,12-DIMETHYLBENZ[A]ANTHRACENE, 57-97-6, 1% IN DIET FOR 35 WK BEGINNING POST CARCINOGEN DOSE (STUDY DURATION: 36 WK), Route [Inhibitor]: ORAL, Species: RAT, Strain/Sex: SPRAGUE-DAWLEY/FEMALE, Target Tissue: Type of Lesion: MAMMARY GLAND: FIBROADENOMA, Dose [Carcinogen]: 50 MG/KG BW IN CORN OIL ONCE, Promoter: NONE USED","3/15 (20%), 2/15 (13%), 35%, not significant"
same,"tumour outcome (control, treated, inhibition, significance)","Carcinogen: 7,12-DIMETHYLBENZ[A]ANTHRACENE, 57-97-6, 2.5 UMOL IN 0.4 ML ACETONE 20 MIN PRIOR TO EACH PROMOTER DOSE (STUDY DURATION: 47 WK), Route [Inhibitor]: DERMAL, Species: MOUSE, Strain/Sex: CF-1/FEMALE, Target Tissue: Type of Lesion: SKIN: PAPILLOMA, Dose [Carcinogen]: 100 NMOL IN 0.2 ML ACETONE ONCE","94%, 61%, 35%, not calculated"
same,"tumour outcome (control, treated, inhibition, significance)","Carcinogen: 7,12-DIMETHYLBENZ[A]ANTHRACENE, 57-97-6, 5 UMOL IN 0.4 ML ACETONE 20 MIN PRIOR TO EACH PROMOTER DOSE (STUDY DURATION: 47 WK), Route [Inhibitor]: DERMAL, Species: MOUSE, Strain/Sex: CF-1/FEMALE, Target Tissue: Type of Lesion: SKIN: PAPILLOMA, Dose [Carcinogen]: 100 NMOL IN 0.2 ML ACETONE ONCE","94%, 46%, 51%, not calculated"
same,"tumour outcome (control, treated, inhibition, significance)","Carcinogen: 7,12-DIMETHYLBENZ[A]ANTHRACENE, 57-97-6, 10 UMOL IN 0.4 ML ACETONE 20 MIN PRIOR TO EACH PROMOTER DOSE (STUDY DURATION: 47 WK), Route [Inhibitor]: DERMAL, Species: MOUSE, Strain/Sex: CF-1/FEMALE, Target Tissue: Type of Lesion: SKIN: CARCINOMA, Dose [Carcinogen]: 100 NMOL IN 0.2 ML ACETONE ONCE","67%, 11%, 84%, not calculated"
same,"tumour outcome (control, treated, inhibition, significance)","Carcinogen: 7,12-DIMETHYLBENZ[A]ANTHRACENE, 57-97-6, 10 UMOL IN 0.4 ML ACETONE 20 MIN PRIOR TO EACH PROMOTER DOSE (STUDY DURATION: 47 WK), Route [Inhibitor]: DERMAL, Species: MOUSE, Strain/Sex: CF-1/FEMALE, Target Tissue: Type of Lesion: SKIN: PAPILLOMA, Dose [Carcinogen]: 100 NMOL IN 0.2 ML ACETONE ONCE","94%, 43%, 54%, not calculated"
same,"tumour outcome (control, treated, inhibition, significance)","Carcinogen: 7,12-DIMETHYLBENZ[A]ANTHRACENE, 57-97-6, 17 MG 2/WK FOR 2 WK APPLIED 20 MIN PRIOR TO EACH TPA DOSE (STUDY DURATION: 22 WK), Route [Inhibitor]: DERMAL, Species: MOUSE, Strain/Sex: SENCAR/FEMALE, Target Tissue: Type of Lesion: SKIN: PAPILLOMA, Dose [Carcinogen]: 6.4 UG IN 0.2 ML ACETONE ONCE, Promoter: 12-O-TETRADECANOYLPHORBOL-13-ACETATE, 16561-29-8, MEZEREIN, 34807-41-5, Promoter: 12-O-TETRADECANOYLPHORBOL-13-ACETATE, 16561-29-8, MEZEREIN, 34807-41-5","90%, 94%, -4%, not calculated"
same,"tumour outcome (control, treated, inhibition, significance)","Carcinogen: 7,12-DIMETHYLBENZ[A]ANTHRACENE, 57-97-6, 17 MG 2/WK FOR 18 WK APPLIED 20 MIN PRIOR TO EACH MEZEREIN DOSE (STUDY DURATION: 22 WK), Route [Inhibitor]: DERMAL, Species: MOUSE, Strain/Sex: SENCAR/FEMALE, Target Tissue: Type of Lesion: SKIN: PAPILLOMA, Dose [Carcinogen]: 6.4 UG IN 0.2 ML ACETONE ONCE, Promoter: 12-O-TETRADECANOYLPHORBOL-13-ACETATE, 16561-29-8 : MEZEREIN, 34807-41-5, Promoter: 12-O-TETRADECANOYLPHORBOL-13-ACETATE, 16561-29-8 : MEZEREIN, 34807-41-5","90%, 62%, 31%, not calculated"
same,"tumour outcome (control, treated, inhibition, significance)","Carcinogen: 7,12-DIMETHYLBENZ[A]ANTHRACENE, 57-97-6, 17 MG 2/WK FOR 20 WK APPLIED 20 MIN PRIOR TO AND 24 HR POST EACH PROMOTER DOSE (STUDY DURATION: 22 WK), Route [Inhibitor]: DERMAL, Species: MOUSE, Strain/Sex: CF-1/FEMALE, Target Tissue: Type of Lesion: SKIN: PAPILLOMA, Dose [Carcinogen]: 25.6 UG IN 0.2 ML ACETONE ONCE, Promoter: 12-O-TETRADECANOYLPHORBOL-13-ACETATE, 16561-29-8","90%, 16%, 82%, not calculated"
